For 24 compounds, IC50 and Ki results are on record in patent publication US10988477B2 (Merck Patent GmbH, priority 2018, dated 2021).

Test [1] has as its target intracellular GCN2 (phosphorylation of the GCN2 substrate eIF2α) (Homo sapiens, UniProt Q9P2K8). Description: GCN2 cellular inhibition assay (AlphaScreen SureFire P-eIF2α Ser51, borrelidin-treated U2OS cells). Type of test: cell-based. The note with it: compounds of Formula IV; biomarker assay, phosphorylated eIF2α Ser51 in borrelidin-treated U2OS cells. In outline:
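First, U2OS cells are plated and left overnight at 37 °C. Next, compounds (from 40 μM final, 4-fold steps) and 10 μM borrelidin are added for 1 h, cells lysed, and phospho-Ser51 eIF2α detected by AlphaScreen bead sandwich. Inhibition is computed versus borrelidin-only wells.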
In general terms: Alpha assays give light when donor and acceptor beads are brought close together.

Another test concerns the target GCN2 kinase (Homo sapiens, UniProt Q9P2K8). Briefly: GCN2 enzyme inhibition assay (Transcreener ADP2 fluorescence polarization). The format is biochemical. The note with it: Enzyme activity for compounds of Formula IV; Ki(app), 280 μM ATP, 25° C. In outline:
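FP detection of ADP (antibody plus Alexa633 tracer) after a 1 h, 25 °C kinase reaction. Enzyme 4 nM, ATP 280 μM, (RS)7 peptide 200 μM, Tris pH 7.5 buffer with MgCl2 and DTT. Percent inhibition fitted by non-linear tight-binding algorithm for IC50 and Ki(app).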
On the technique in general: Fluorescence polarisation rises when a labelled molecule tumbles more slowly, as on binding a larger partner.

Sequence of GCN2 kinase (Q9P2K8 whole entry): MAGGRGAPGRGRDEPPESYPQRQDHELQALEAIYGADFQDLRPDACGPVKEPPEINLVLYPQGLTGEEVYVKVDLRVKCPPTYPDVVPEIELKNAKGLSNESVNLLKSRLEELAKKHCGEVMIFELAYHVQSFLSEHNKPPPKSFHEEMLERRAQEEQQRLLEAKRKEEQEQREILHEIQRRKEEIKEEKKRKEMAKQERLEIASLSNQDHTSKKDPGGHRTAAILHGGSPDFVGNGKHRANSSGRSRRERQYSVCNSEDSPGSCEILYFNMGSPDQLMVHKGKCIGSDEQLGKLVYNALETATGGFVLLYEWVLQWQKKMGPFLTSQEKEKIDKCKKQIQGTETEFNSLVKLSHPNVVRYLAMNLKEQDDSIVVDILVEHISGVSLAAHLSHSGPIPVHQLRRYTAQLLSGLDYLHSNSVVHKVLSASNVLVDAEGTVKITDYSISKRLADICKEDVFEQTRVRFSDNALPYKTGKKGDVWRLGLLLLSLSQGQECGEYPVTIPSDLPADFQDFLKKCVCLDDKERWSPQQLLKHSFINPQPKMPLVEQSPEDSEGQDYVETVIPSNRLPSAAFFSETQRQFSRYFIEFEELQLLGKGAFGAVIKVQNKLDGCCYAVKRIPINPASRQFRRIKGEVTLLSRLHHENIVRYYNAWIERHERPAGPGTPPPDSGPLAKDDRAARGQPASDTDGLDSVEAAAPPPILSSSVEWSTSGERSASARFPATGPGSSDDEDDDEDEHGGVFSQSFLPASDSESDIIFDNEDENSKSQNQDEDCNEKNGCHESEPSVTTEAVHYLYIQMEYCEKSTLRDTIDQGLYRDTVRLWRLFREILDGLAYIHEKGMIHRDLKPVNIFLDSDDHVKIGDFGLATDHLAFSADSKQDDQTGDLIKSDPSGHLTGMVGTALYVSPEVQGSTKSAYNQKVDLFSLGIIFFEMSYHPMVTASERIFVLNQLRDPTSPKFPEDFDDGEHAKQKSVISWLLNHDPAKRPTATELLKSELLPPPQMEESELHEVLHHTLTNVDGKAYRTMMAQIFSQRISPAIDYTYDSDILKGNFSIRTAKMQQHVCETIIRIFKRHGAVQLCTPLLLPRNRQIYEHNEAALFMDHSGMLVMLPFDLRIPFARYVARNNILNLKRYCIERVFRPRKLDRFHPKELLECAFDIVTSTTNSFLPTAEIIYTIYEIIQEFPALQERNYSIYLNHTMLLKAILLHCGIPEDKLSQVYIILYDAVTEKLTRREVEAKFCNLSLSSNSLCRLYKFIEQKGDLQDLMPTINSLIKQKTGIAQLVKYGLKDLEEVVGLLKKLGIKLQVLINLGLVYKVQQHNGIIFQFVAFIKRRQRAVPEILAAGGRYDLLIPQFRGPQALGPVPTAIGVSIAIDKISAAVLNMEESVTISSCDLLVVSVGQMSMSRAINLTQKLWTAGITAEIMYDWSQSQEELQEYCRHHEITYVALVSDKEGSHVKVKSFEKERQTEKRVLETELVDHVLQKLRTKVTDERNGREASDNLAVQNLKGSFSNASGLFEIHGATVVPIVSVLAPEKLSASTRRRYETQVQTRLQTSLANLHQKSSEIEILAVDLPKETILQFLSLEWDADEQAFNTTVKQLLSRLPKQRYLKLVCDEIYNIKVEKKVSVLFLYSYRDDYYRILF
Sequence of intracellular GCN2 (phosphorylation of the GCN2 substrate eIF2α) (Q9P2K8 whole entry): as above

Turning to `NC(=O)C1CCN(c2ccnc(-c3cnc4cnc(C(F)F)cn34)n2)C1` (stereo not drawn) [IV-63, 1-(2-(6-(Difluoromethyl)imidazo[1,2-a]pyrazin-3-yl)pyrimidin-4-yl)pyrrolidine-3-carboxamide], the concentration for half-maximal inhibition (IC50) (as a rule, the point on the concentration scale where inhibition reaches its midpoint) in test [1] is greater than 5 µM. Moreover, the Ki on GCN2 kinase lay in the range of 0.1 to 1 µM.
On to `FC(F)c1cn2c(-c3nccc(N4CCC(c5cc[nH]n5)C4)n3)cnc2cn1` (stereo not drawn) [IV-64, 3-(4-(3-(1H-Pyrazol-3-yl)pyrrolidin-1-yl)pyrimidin-2-yl)-6-(difluoromethyl)imidazo[1,2-a]pyrazine], for which the half-inhibitory concentration (IC50) in test [1] is greater than 5 µM. For the same compound, on GCN2 kinase, the Ki lay in the range of 0.1 to 1 µM.
`Cn1cc(C2CCN(c3ccnc(-c4cnc5cnc(C(F)F)cn45)n3)C2)cn1` (stereo not drawn) [IV-65, 6-(Difluoromethyl)-3-(4-(3-(1-methyl-1H-pyrazol-4-yl)pyrrolidin-1-yl)pyrimidin-2-yl)imidazo[1,2-a]pyrazine] registered an IC50 in test [1] greater than 5 µM. At GCN2 kinase, this compound yielded a Ki of 0.1 to 1 µM.
With `FC(F)c1cn2c(-c3nccc(N4CCC(c5c[nH]cn5)C4)n3)cnc2cn1` (stereo not drawn) [IV-67, 3-(4-(3-(1H-Imidazol-4-yl)pyrrolidin-1-yl)pyrimidin-2-yl)-6-(difluoromethyl)imidazo[1,2-a]pyrazine], in test [1], the IC50 is greater than 5 µM. The same compound displayed a Ki at GCN2 kinase of 0.1 to 1 µM.
In test [1], `FC(F)c1cn2c(-c3nccc(N4CCC(c5ccncc5)C4)n3)cnc2cn1` (stereo not drawn) [IV-68, 6-(Difluoromethyl)-3-(4-(3-(pyridin-4-yl)pyrrolidin-1-yl)pyrimidin-2-yl)imidazo[1,2-a]pyrazine] had an IC50 greater than 5 µM. This compound also had a Ki at GCN2 kinase of 0.1 to 1 µM.
Taken in the same sequence, the figures for `O=C1NCCC12CCN(c1ccnc(-c3cnc4cnc(C(F)F)cn34)n1)C2` (stereo not drawn) [IV-69, 7-(2-(6-(Difluoromethyl)imidazo[1,2-a]pyrazin-3-yl)pyrimidin-4-yl)-2,7-di azaspiro[4.4]nonan-1-one] were greater than 5 µM and 0.1 to 1 µM.
As to `CS(=O)(=O)NC1CCN(c2ccnc(-c3cnc4cnc(C(F)F)cn34)n2)C1` (stereo not drawn) [IV-70, N-(1-(2-(6-(Difluoromethyl)imidazo[1,2-a]pyrazin-3-yl)pyrimidin-4-yl)pyrrolidin-3-yl)methanesulfonamide], the half-maximal inhibitory concentration (IC50) in test [1] was greater than 5 µM. This compound came in with a Ki on GCN2 kinase of 0.1 to 1 µM.
Turning to `CNS(=O)(=O)C1CCN(c2ccnc(-c3cnc4cnc(C(F)F)cn34)n2)C1` (stereo not drawn) [IV-71, 1-(2-(6-(Difluoromethyl)imidazo[1,2-a]pyrazin-3-yl)pyrimidin-4-yl)-N-methylpyrrolidine-3-sulfonamide], in test [1], the IC50 was greater than 5 µM. On GCN2 kinase, this compound registered a Ki of 0.1 to 1 µM.
`OC1CCN(c2ccnc(-c3cnc4cnc(C(F)F)cn34)n2)C1` (stereo not drawn) [IV-72, 1-(2-(6-(Difluoromethyl)imidazo[1,2-a]pyrazin-3-yl)pyrimidin-4-yl)pyrrolidin-3-ol] yielded an IC50 in test [1] greater than 5 µM. The compound also gave a Ki on GCN2 kinase of 0.1 to 1 µM.
In test [1], `FC(F)c1cn2c(-c3nccc(N4CCC(C5COC5)C4)n3)cnc2cn1` (stereo not drawn) [IV-73, 6-(Difluoromethyl)-3-(4-(3-(oxetan-3-yl)pyrrolidin-1-yl)pyrimidin-2-yl)imidazo[1,2-a]pyrazine] gave an IC50 greater than 5 µM. On GCN2 kinase, this compound came in with a Ki of 0.1 to 1 µM.
In the case of `NS(=O)(=O)NCC1CCCN(c2ccnc(-c3cnc4cnc(C(F)F)cn34)n2)C1` (stereo not drawn) [IV-74, 6-(Difluoromethyl)-3-[4-[3-[(sulfamoylamino)methyl]-1-piperidyl]pyrimidin-2-yl]imidazo[1,2-a]pyrazine], in test [1], the concentration for half-maximal inhibition (IC50) was greater than 5 µM. At GCN2 kinase, this compound registered a Ki of 0.1 to 1 µM.
Turning to `FC(F)c1cn2c(-c3nccc(N4CCC5(CCC5)C4)n3)cnc2cn1` [IV-75, 3-[4-(6-Azaspiro[3.4]octan-6-yl)pyrimidin-2-yl]-6-(difluoromethyl)imidazo[1,2-a]pyrazine], in test [1], the concentration for half-maximal inhibition (IC50) is greater than 5 µM. The compound further registered a Ki at GCN2 kinase of 0.1 to 1 µM.
In turn, `FC(F)c1cn2c(-c3nccc(N4CCC(c5cccnc5)C4)n3)cnc2cn1` (stereo not drawn) [IV-76, 6-(Difluoromethyl)-3-(4-(3-(pyridin-3-yl)pyrrolidin-1-yl)pyrimidin-2-yl)imidazo[1,2-a]pyrazine] yielded a 50% inhibitory concentration (IC50) in test [1] greater than 5 µM. In addition, the Ki at GCN2 kinase was 0.1 to 1 µM.
In turn, `FC(F)c1cn2c(-c3nccc(N4CCC(c5ccccn5)C4)n3)cnc2cn1` (stereo not drawn) [IV-77, 6-(Difluoromethyl)-3-(4-(3-(pyridin-2-yl)pyrrolidin-1-yl)pyrimidin-2-yl)imidazo[1,2-a]pyrazine] gave an IC50 in test [1] greater than 5 µM. In addition, at GCN2 kinase, the Ki lay within 0.1 to 1 µM.
Taken in the same sequence, the figures for `CC(=O)N1CCN(c2ccnc(-c3cnc4cnc(C(C)(F)F)cn34)n2)CC1` [IV-78, 1-(4-(2-(6-(1,1-Difluoroethyl)imidazo[1,2-a]pyrazin-3-yl)pyrimidin-4-yl)piperazin-1-yl)ethan-1-one] were greater than 5 µM and 0.1 to 1 µM.
Turning to `C[C@H]1COCCN1c1ccnc(-c2cnc3cnc(C(F)F)cn23)n1` [IV-81, (S)-4-(2-(6-(Difluoromethyl)imidazo[1,2-a]pyrazin-3-yl)pyrimidin-4-yl)-3-methylmorpholine], the half-inhibitory concentration (IC50) in test [1] is greater than 5 µM. On GCN2 kinase, this compound had a Ki of 0.1 to 1 µM.
Taken in the same sequence, the figures for `N#CCC1CCCN(c2ccnc(-c3cnc4cnc(C(F)F)cn34)n2)C1` (stereo not drawn) [IV-82, 2-(1-(2-(6-(Difluoromethyl)imidazo[1,2-a]pyrazin-3-yl)pyrimidin-4-yl)piperidin-3-yl)acetonitrile] were greater than 5 µM and 0.1 to 1 µM.
In the same order, the values of `O=c1[nH]nc2n1CCN(c1ccnc(-c3cnc4cnc(C(F)F)cn34)n1)C2` [IV-83, 7-(2-(6-(Difluoromethyl)imidazo[1,2-a]pyrazin-3-yl)pyrimidin-4-yl)-5,6,7,8-tetrahydro-[1,2,4]triazolo[4,3-a]pyrazin-3 (2H)-one] are greater than 5 µM and 0.1 to 1 µM.
Taken in the same sequence, the figures for `C[C@H]1CCCCN1c1ccnc(-c2cnc3cnc(C(F)F)cn23)n1` [IV-85, (S)-6-(Difluoromethyl)-3-(4-(2-methylpiperidin-1-yl)pyrimidin-2-yl)imidazo[1,2-a]pyrazine] were greater than 5 µM and 0.1 to 1 µM.
Compound `O=C1NCCN2CCN(c3ccnc(-c4cnc5cnc(C(F)F)cn45)n3)CC12` (stereo not drawn) [IV-86, 8-(2-(6-(Difluoromethyl)imidazo[1,2-a]pyrazin-3-yl)pyrimidin-4-yl)hexahydro-2H-pyrazino[1,2-a]pyrazin-1(6H)-one] returned an IC50 in test [1] greater than 5 µM. This compound showed a Ki at GCN2 kinase of 0.1 to 1 µM.
In the same order, the values of `O=C1NCC2(CCCN(c3ccnc(-c4cnc5cnc(C(F)F)cn45)n3)CC2)O1` (stereo not drawn) [IV-87, 8-(2-(6-(Difluoromethyl)imidazo[1,2-a]pyrazin-3-yl)pyrimidin-4-yl)-1-oxa-3,8-diazaspiro[4.6]undecan-2-one] are greater than 5 µM and 0.1 to 1 µM.
Taken in the same sequence, the figures for `OCC1CCCCN(c2ccnc(-c3cnc4cnc(C(F)F)cn34)n2)C1` (stereo not drawn) [IV-88, (1-(2-(6-(Difluoromethyl)imidazo[1,2-a]pyrazin-3-yl)pyrimidin-4-yl)azepan-3-yl)methanol] were greater than 5 µM and 0.1 to 1 µM.
In the case of `CN1CCN(c2ccnc(-c3cnc4cnc(C(F)F)cn34)n2)CC1C(N)=O` (stereo not drawn) [IV-89, 4-(2-(6-(Difluoromethyl)imidazo[1,2-a]pyrazin-3-yl)pyrimidin-4-yl)-1-methylpiperazine-2-carboxamide], in test [1], the IC50 was greater than 5 µM. The compound further returned a Ki at GCN2 kinase of 0.1 to 1 µM.
Taken in the same sequence, the figures for `CC1(O)CCCN(c2ccnc(-c3cnc4cnc(C(F)F)cn34)n2)CC1` (stereo not drawn) [IV-90, 1-(2-(6-(Difluoromethyl)imidazo[1,2-a]pyrazin-3-yl)pyrimidin-4-yl)-4-methylazepan-4-ol] were greater than 5 µM and 0.1 to 1 µM.
